From PubChem BioAssay AID743165 (Broad Institute, 2013) come the findings set out here.

The subject of this assay is Mycobacterium tuberculosis replicating, CFU imaging. Kind of assay: IC90 against replicating M. tuberculosis, dose response, CFU by imaging, dry powder, 7108-03 (AID 743165).

The IC90 is the concentration needed for an effect of 90%. With `Cn1c(NC(=O)c2ccccc2)nc2ccccc21`, the IC90 was less than 48 µM.
Take `CCOC(=O)NC(=O)c1ccsc1NC(=O)c1nc2ccccc2s1`: the IC90 was less than 8 µM.
